Laboratory results from ChEMBL document CHEMBL4130462, “Natural isoflavone biochanin A as a template for the design of new and potent 3-phenylquinolone efflux inhibitors against Mycobacterium avium” (Eur J Med Chem, 2017).
Values after ≈ are worked out from the molar mass of the structure shown.

How the values were obtained:
Mycobacterium avium [1] = conditions: 104 mc'2 4
Mycobacterium avium [2] = conditions: 104
Mycobacterium avium [3] = conditions: isolate MAV3
Mycobacterium avium [4] = conditions: 104 mc'2 4; remark: listed apart in the source
[5] = tested on: Mycobacterium avium subsp. avium ATCC 25291
Mycobacterium avium [6] = test: Antimycobacterial activity against Mycobacterium avium isolate MAV2 assessed as reduction in bacterial viability incubated for 3 days by MTT assay; format: organism-based; conditions: 72 h
Mycobacterium avium [7] = conditions: isolate MAV1
Description: Inhibition of multidrug resistance efflux pump in Mycobacterium avium isolate MAV1 assessed as potentiation of ofloxacin-induced antibacterial activity by measuring ofloxacin MIC at 1/2 MIC incubated for 3 days by MTT assay (Rvb = 4 ug/ml)

Mycobacterium avium [8] = conditions: isolate MAV2
Mycobacterium avium [9] = conditions: 104 mc'2 4; remark: listed apart in the source
Mycobacterium avium [10] = conditions: isolate MAV3; remark: listed apart in the source
Mycobacterium avium [11] = conditions: 104; remark: listed apart in the source
[12] = tested on: Mycobacterium avium subsp. avium ATCC 25291; remark: listed apart in the source
Description: Inhibition of multidrug resistance efflux pump in Mycobacterium avium ATCC 25291 assessed as potentiation of clarithromycin -induced antibacterial activity by measuring clarithromycin MIC at 1/4 MIC incubated for 3 days by MTT assay

Mycobacterium avium [13] = conditions: 104 mc'2 3
[14] = tested on: Mycobacterium avium subsp. avium ATCC 25291; remark: listed apart in the source
Mycobacterium avium [15] = conditions: 104 mc'2 4; remark: listed apart in the source
[16] = tested on: Mycobacterium avium subsp. avium ATCC 25291; remark: listed apart in the source
Description: Inhibition of multidrug resistance efflux pump in Mycobacterium avium ATCC 25291 assessed as potentiation of ethidium bromide-induced antibacterial activity by measuring ethidium bromide MIC at 1/2 MIC incubated for 3 days by MTT assay (Rvb = 50 ug/ml)

[17] = tested on: Mycobacterium avium subsp. avium ATCC 25291; remark: listed apart in the source
Description: Inhibition of multidrug resistance efflux pump in Mycobacterium avium ATCC 25291 assessed as potentiation of clarithromycin -induced antibacterial activity by measuring clarithromycin MIC at 1/2 MIC incubated for 3 days by MTT assay

Mycobacterium avium [18] = conditions: 104; remark: listed apart in the source
Mycobacterium avium [19] = conditions: 104; remark: listed apart in the source
Mycobacterium avium [20] = conditions: isolate MAV3; remark: listed apart in the source
Mycobacterium avium [21] = conditions: isolate MAV4
Mycobacterium avium [22] = conditions: isolate MAV3; remark: listed apart in the source
Mycobacterium avium [23] = conditions: 104 mc'2 3; remark: listed apart in the source
[24] = tested on: Mycobacterium avium subsp. avium ATCC 25291; remark: listed apart in the source
Mycobacterium avium [25] = conditions: isolate MAV2; remark: listed apart in the source
Mycobacterium avium [26] = conditions: isolate MAV1; remark: listed apart in the source
Mycobacterium avium [27] = conditions: isolate MAV4; remark: listed apart in the source
Description: Inhibition of multidrug resistance efflux pump in Mycobacterium avium isolate MAV4 assessed as potentiation of clarithromycin -induced antibacterial activity by measuring clarithromycin MIC at 1/4 MIC incubated for 3 days by MTT assay

[28] = tested on: Mycobacterium avium subsp. avium ATCC 25291; remark: listed apart in the source
Mycobacterium avium [29] = conditions: 104; remark: listed apart in the source
Mycobacterium avium [30] = conditions: 104; remark: listed apart in the source
Mycobacterium avium [31] = conditions: isolate MAV1; remark: listed apart in the source
Description: Inhibition of multidrug resistance efflux pump in Mycobacterium avium isolate MAV1 assessed as potentiation of ciprofloxacin-induced antibacterial activity by measuring ciprofloxacin MIC at 1/2 MIC incubated for 3 days by MTT assay (Rvb = 2 ug/ml)

Mycobacterium avium [32] = conditions: isolate MAV2; remark: listed apart in the source
Description: Inhibition of multidrug resistance efflux pump in Mycobacterium avium isolate MAV2 assessed as potentiation of ofloxacin-induced antibacterial activity by measuring ofloxacin MIC at 1/2 MIC incubated for 3 days by MTT assay

Mycobacterium avium [33] = conditions: isolate MAV2; remark: listed apart in the source
Mycobacterium avium [34] = conditions: 104 mc'2 4; remark: listed apart in the source
Mycobacterium avium [35] = conditions: 104 mc'2 3; remark: listed apart in the source
Mycobacterium avium [36] = conditions: isolate MAV4; remark: listed apart in the source
Description: Inhibition of multidrug resistance efflux pump in Mycobacterium avium isolate MAV4 assessed as potentiation of ethidium bromide-induced antibacterial activity by measuring ethidium bromide MIC at 1/4 MIC incubated for 3 days by MTT assay

Mycobacterium avium [37] = conditions: isolate MAV4; remark: listed apart in the source
Mycobacterium avium [38] = conditions: isolate MAV1; remark: listed apart in the source
Mycobacterium avium [39] = test: Antimycobacterial activity against Mycobacterium avium isolate MAV3 assessed as reduction in bacterial viability incubated for 3 days by MTT assay; format: organism-based; conditions: 72 h
Mycobacterium avium [40] = conditions: isolate MAV2; remark: listed apart in the source
Description: Inhibition of multidrug resistance efflux pump in Mycobacterium avium isolate MAV2 assessed as potentiation of clarithromycin -induced antibacterial activity by measuring clarithromycin MIC at 1/4 MIC incubated for 3 days by MTT assay (Rvb = >1024 ug/ml)

Mycobacterium avium [41] = conditions: isolate MAV1; remark: listed apart in the source
Mycobacterium avium [42] = conditions: isolate MAV3; remark: listed apart in the source
Mycobacterium avium [43] = conditions: 104 mc'2 4; remark: listed apart in the source
Mycobacterium avium [44] = conditions: isolate MAV4; remark: listed apart in the source
[45] = Cytotoxicity in human monocyte-derived macrophages assessed as reduction in cell viability incubated for 3 days by alamar blue dye based assay; design: species or system Macrophage cell line
Mycobacterium avium [46] = conditions: 104 mc'2 4; remark: listed apart in the source
Mycobacterium avium [47] = conditions: 104 mc'2 3; remark: listed apart in the source
Mycobacterium avium [48] = conditions: 104 mc'2 4; remark: listed apart in the source
Mycobacterium avium [49] = conditions: isolate MAV3; remark: listed apart in the source
Mycobacterium avium [50] = conditions: 104; remark: listed apart in the source
Description: Inhibition of multidrug resistance efflux pump in Mycobacterium avium 104 assessed as potentiation of clarithromycin -induced antibacterial activity by measuring clarithromycin MIC at 1/2 MIC incubated for 3 days by MTT assay

Mycobacterium avium [51] = conditions: isolate MAV4; remark: listed apart in the source
Mycobacterium avium [52] = conditions: isolate MAV3; remark: listed apart in the source
Mycobacterium avium [53] = conditions: isolate MAV4; remark: listed apart in the source
Mycobacterium avium [54] = conditions: isolate MAV2; remark: listed apart in the source
Mycobacterium avium [55] = conditions: 104 mc'2 3; remark: listed apart in the source
Mycobacterium avium [56] = conditions: isolate MAV4; remark: listed apart in the source
Mycobacterium avium [57] = conditions: 104 mc'2 4; remark: listed apart in the source
Mycobacterium avium [58] = conditions: 104; remark: listed apart in the source
Mycobacterium avium [59] = conditions: isolate MAV3; remark: listed apart in the source
Mycobacterium avium [60] = conditions: isolate MAV3; remark: listed apart in the source
Mycobacterium avium [61] = conditions: 104; remark: listed apart in the source
Mycobacterium avium [62] = conditions: isolate MAV1; remark: listed apart in the source
Mycobacterium avium [63] = conditions: 104; remark: listed apart in the source
Description: Inhibition of multidrug resistance efflux pump in Mycobacterium avium 104 assessed as potentiation of clarithromycin -induced antibacterial activity by measuring clarithromycin MIC at 1/4 MIC incubated for 3 days by MTT assay

Mycobacterium avium [64] = conditions: isolate MAV1; remark: listed apart in the source
[65] = tested on: Mycobacterium avium subsp. avium ATCC 25291; remark: listed apart in the source
Mycobacterium avium [66] = conditions: isolate MAV2; remark: listed apart in the source
Mycobacterium avium [67] = conditions: isolate MAV1; remark: listed apart in the source
[68] = Safety index, ratio of CC50 for test compound to CC50 for chlorpromazine for cytotoxicity in human monocyte-derived macrophages; format: cell-based, Macrophage cell line

With CCCOc1ccc(-c2cn(CCN3CCCCCC3)c3ccccc3c2=O)cc1 the MIC (Mycobacterium avium [1]) was 32 mg/L (≈ 79.1 µM), the MIC (Mycobacterium avium [2]) was 4 mg/L (≈ 9.89 µM) and the MIC (Mycobacterium avium [3]) was 4 mg/L (≈ 9.89 µM). For the same compound, the MIC (Mycobacterium avium [4]) was < 0.125 mg/L, the MIC [5] was < 1 mg/L and the MIC (Mycobacterium avium [6]) was 128 mg/L (≈ 316 µM). For the same compound, the MIC (Mycobacterium avium [7]) was < 0.0625 mg/L, the MIC (Mycobacterium avium [8]) was 3.12 mg/L (≈ 7.72 µM) and the MIC (Mycobacterium avium [9]) was < 4 mg/L. The MIC (Mycobacterium avium [10]) was 4 mg/L (≈ 9.89 µM), the MIC (Mycobacterium avium [11]) was < 0.195 mg/L and the MIC [12] was 8 mg/L (≈ 19.8 µM). The MIC (Mycobacterium avium [13]) was < 4 mg/L, the MIC [14] was < 0.5 mg/L and the MIC (Mycobacterium avium [15]) was < 4 mg/L. For the same compound, the MIC [16] was < 0.39 mg/L, the MIC [17] was < 0.0625 mg/L and the MIC (Mycobacterium avium [18]) was 1.56 mg/L (≈ 3.86 µM). For the same compound, the MIC (Mycobacterium avium [19]) was < 4 mg/L, the MIC (Mycobacterium avium [20]) was 1 mg/L (≈ 2.47 µM) and the MIC (Mycobacterium avium [21]) was 16 mg/L (≈ 39.5 µM). For the same compound, the MIC (Mycobacterium avium [22]) was < 4 mg/L, the MIC (Mycobacterium avium [23]) was 4 mg/L (≈ 9.89 µM) and the MIC [24] was 8 mg/L (≈ 19.8 µM). The MIC (Mycobacterium avium [25]) was 512 mg/L (≈ 1270 µM), the MIC (Mycobacterium avium [26]) was < 0.125 mg/L and the MIC (Mycobacterium avium [27]) was 4 mg/L (≈ 9.89 µM). The MIC [28] was 16 mg/L (≈ 39.5 µM), the MIC (Mycobacterium avium [29]) was < 4 mg/L and the MIC (Mycobacterium avium [30]) was < 4 mg/L. The MIC (Mycobacterium avium [31]) was < 0.031 mg/L, the MIC (Mycobacterium avium [32]) was 2 mg/L (≈ 4.94 µM) and the MIC (Mycobacterium avium [33]) was < 0.195 mg/L. It also gave an MIC (Mycobacterium avium [34]) of 1 mg/L (≈ 2.47 µM), an MIC (Mycobacterium avium [35]) of 0.78 mg/L (≈ 1.93 µM) and an MIC (Mycobacterium avium [36]) of 3.12 mg/L (≈ 7.72 µM). The MIC (Mycobacterium avium [37]) was 8 mg/L (≈ 19.8 µM), the MIC (Mycobacterium avium [38]) was < 4 mg/L and the MIC (Mycobacterium avium [39]) was 128 mg/L (≈ 316 µM). It also gave an MIC (Mycobacterium avium [40]) of 256 mg/L (≈ 633 µM), an MIC (Mycobacterium avium [41]) of 1.56 mg/L (≈ 3.86 µM) and an MIC (Mycobacterium avium [42]) of 0.78 mg/L (≈ 1.93 µM). For the same compound, the MIC (Mycobacterium avium [43]) was 128 mg/L (≈ 316 µM), the MIC (Mycobacterium avium [44]) was < 4 mg/L and the CC50 at 72 h ([45]; human monocyte-derived macrophages) was 50 µM. It also gave an MTC ([45]; macrophage cell line, 72 h) of 20 µM, an MIC (Mycobacterium avium [46]) of 32 mg/L (≈ 79.1 µM) and an MIC (Mycobacterium avium [47]) of 2 mg/L (≈ 4.94 µM). The MIC (Mycobacterium avium [48]) was < 4 mg/L, the MIC (Mycobacterium avium [49]) was 16 mg/L (≈ 39.5 µM) and the MIC (Mycobacterium avium [50]) was < 0.125 mg/L. The MIC (Mycobacterium avium [51]) was < 0.25 mg/L, the MIC (Mycobacterium avium [52]) was 32 mg/L (≈ 79.1 µM) and the MIC (Mycobacterium avium [53]) was 2 mg/L (≈ 4.94 µM). For the same compound, the MIC (Mycobacterium avium [54]) was 2 mg/L (≈ 4.94 µM), the MIC (Mycobacterium avium [55]) was < 0.125 mg/L and the MIC (Mycobacterium avium [56]) was 8 mg/L (≈ 19.8 µM). For the same compound, the MIC (Mycobacterium avium [57]) was < 0.125 mg/L, the MIC (Mycobacterium avium [58]) was 1 mg/L (≈ 2.47 µM) and the MIC (Mycobacterium avium [59]) was 0.5 mg/L (≈ 1.24 µM). The MIC (Mycobacterium avium [60]) was 2 mg/L (≈ 4.94 µM), the MIC (Mycobacterium avium [61]) was 8 mg/L (≈ 19.8 µM) and the MIC (Mycobacterium avium [62]) was < 0.195 mg/L. For the same compound, the MIC (Mycobacterium avium [63]) was 1 mg/L (≈ 2.47 µM), the MIC (Mycobacterium avium [64]) was < 4 mg/L and the MIC [65] was < 0.25 mg/L. The MIC (Mycobacterium avium [66]) was 32 mg/L (≈ 79.1 µM), the MIC (Mycobacterium avium [67]) was < 0.125 mg/L and the selectivity ratio [68] was 2 to 4.
